Our source for the GI50 and TGI values is PubChem BioAssay (NCI).

The structures appear in SMILES notation. Where “and” joins values, the source holds several entries; their conditions need not be identical. Identical values can stand only once.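 How tested: cells in 96-well plates exposed to compound for 48 hours at five concentrations. GI50 marks 50% less growth. At the TGI there is no net growth.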 Bounds are passed on as bounds.

Some test systems named below: SNB-19 CNS; SK-MEL-5 melanoma; U251 CNS; MDA-MB-435; LOX IMVI melanoma; RPMI-8226 leukemia; TK-10 renal; DU-145 prostate; SK-MEL-2 melanoma; MDA-MB-231 breast.
What all share (assay): growth of human tumour cells (NCI), 48 h

On to `COc1ccc2c(c1)O/C(=C\c1cccc(OCC(=O)Nc3nc4ccccc4s3)c1)C2=O`, for which the GI50 with SNB-19 CNS was > 57800 nM; in the assay on SK-MEL-5 melanoma, > 51500 nM; with U251 CNS, 12600 nM; in the assay with MDA-MB-435, 14200 nM; in the assay with LOX IMVI melanoma it was 328 nM; with RPMI-8226 leukemia it was 4870 nM. Moreover, the GI50 in the assay on TK-10 renal is > 54300 nM; in the assay on DU-145 prostate, 3570 nM; with SK-MEL-2 melanoma, 11500 nM; with MDA-MB-231 breast, 7350 nM. Besides, the TGI in the assay with SNB-19 CNS is > 100000 nM; in the assay with SK-MEL-5 melanoma, > 100000 nM; in the assay with U251 CNS, 53300 nM; in the assay with MDA-MB-435, > 100000 nM; in the assay with LOX IMVI melanoma, 1050 nM; in the assay with RPMI-8226 leukemia, > 100000 nM. The TGI is > 100000 nM in the assay on TK-10 renal, 21900 nM with DU-145 prostate, 33300 nM with SK-MEL-2 melanoma and > 23100 nM in the assay with MDA-MB-231 breast.

Consider `O=S(=O)(Nc1ccc(-c2nc(-c3cccc(OCCN4CCOCC4)c3)c(-c3ccnc(Br)c3)[nH]2)cc1)c1ccccc1`, for which the GI50 is 6070 nM in the assay with SNB-19 CNS; 2120 nM in the assay on SK-MEL-5 melanoma; 2920 nM in the assay with U251 CNS; 2930 nM with MDA-MB-435; 1620 nM in the assay on LOX IMVI melanoma; 2500 nM in the assay on RPMI-8226 leukemia. In addition, the GI50 with TK-10 renal was 4160 nM; in the assay with DU-145 prostate, 5640 nM; in the assay on SK-MEL-2 melanoma it was 2590 nM; in the assay on MDA-MB-231 breast, 3230 nM. For the same compound, the TGI is > 100000 nM with SNB-19 CNS; 4600 nM in the assay on SK-MEL-5 melanoma; 46000 nM in the assay with U251 CNS; > 100000 nM in the assay on MDA-MB-435; 3420 nM with LOX IMVI melanoma; > 100000 nM in the assay on RPMI-8226 leukemia. In addition, the TGI in the assay with TK-10 renal was > 100000 nM; in the assay on DU-145 prostate it was > 100000 nM; with SK-MEL-2 melanoma, 6870 nM; in the assay with MDA-MB-231 breast it was 63600 nM.

On to `C[C@@H]1O[C@@H](O[C@H]2C[C@@H](O)[C@]3(CO)C4C(CC[C@]3(O)C2)[C@@]2(O)CC[C@H](C3=CC(=O)OC3)[C@@]2(C)C[C@H]4O)[C@H](O)[C@H](O)[C@H]1O` (stereo not given in full), for which the GI50 was 60.5 nM in the assay with SNB-19 CNS; 16 nM in the assay on SK-MEL-5 melanoma; 25 nM with U251 CNS; 59.5 nM with MDA-MB-435; 23.3 nM with LOX IMVI melanoma; 67.2 nM in the assay with RPMI-8226 leukemia. The GI50 in the assay with TK-10 renal was 14.8 nM; in the assay with DU-145 prostate, 10.4 nM; in the assay on SK-MEL-2 melanoma, 65.5 nM; in the assay on MDA-MB-231 breast, 111 nM. In addition, the TGI is 125 nM with SNB-19 CNS; 53.3 nM in the assay with SK-MEL-5 melanoma; 83.9 nM in the assay on U251 CNS; 134 nM in the assay on MDA-MB-435; 88.2 nM in the assay on LOX IMVI melanoma; 1760 nM with RPMI-8226 leukemia. In addition, the TGI is 38.4 nM with TK-10 renal, 20 nM in the assay on DU-145 prostate, 170 nM in the assay on SK-MEL-2 melanoma and 286 nM in the assay with MDA-MB-231 breast.

As for `Cn1cc(-c2cc3c(Nc4ccc(CC(=O)Nc5cc(C(C)(C)C)on5)cc4)ncnc3[nH]2)cn1`, the GI50 in the assay with SNB-19 CNS is 492 nM and 399 nM; in the assay with SK-MEL-5 melanoma, 1400 nM and 1310 nM; in the assay with U251 CNS it was 586 nM and 380 nM; in the assay with MDA-MB-435, 845 nM and 944 nM; in the assay with LOX IMVI melanoma it was 870 nM and 548 nM; with RPMI-8226 leukemia it was 2030 nM and 1070 nM. The GI50 in the assay on TK-10 renal was 2740 nM and 2440 nM; in the assay with DU-145 prostate, 830 nM and 491 nM; with SK-MEL-2 melanoma, 835 nM and 943 nM; in the assay on MDA-MB-231 breast, 797 nM and 786 nM. For the same compound, the TGI was 5310 nM and 8400 nM in the assay with SNB-19 CNS; 4770 nM and 4430 nM in the assay on SK-MEL-5 melanoma; 5840 nM and 6410 nM in the assay with U251 CNS; 2950 nM and 4290 nM with MDA-MB-435; 6310 nM and 3630 nM with LOX IMVI melanoma; 5410 nM and 3800 nM in the assay on RPMI-8226 leukemia. Besides, the TGI was 8910 nM and 7400 nM in the assay with TK-10 renal; 3840 nM and 2890 nM in the assay on DU-145 prostate; 2800 nM and 3730 nM in the assay with SK-MEL-2 melanoma; 5170 nM and 8350 nM with MDA-MB-231 breast.

On to `O=S(=O)(c1cccc(C(F)(F)F)c1)N1c2ccccc2-n2cccc2C1c1cccnc1` (stereo not given), for which the TGI is > 72900 nM with SNB-19 CNS; > 43000 nM in the assay on SK-MEL-5 melanoma; > 53100 nM with U251 CNS; > 42200 nM in the assay on MDA-MB-435; > 68700 nM with LOX IMVI melanoma; > 57700 nM in the assay with RPMI-8226 leukemia. In addition, the TGI in the assay on TK-10 renal was > 85100 nM; in the assay on DU-145 prostate, > 55200 nM; with SK-MEL-2 melanoma, > 52200 nM; in the assay on MDA-MB-231 breast, > 54500 nM.

In the case of `O=C1Nc2ccc(Cl)cc2/C1=C\c1c(-c2ccc(F)cc2)nc2ccccn12`, the GI50 was 3330 nM in the assay with SNB-19 CNS; 2380 nM with SK-MEL-5 melanoma; 2050 nM with U251 CNS; 1990 nM in the assay with MDA-MB-435; 2060 nM in the assay with LOX IMVI melanoma; 2250 nM in the assay on RPMI-8226 leukemia. For the same compound, the GI50 was 2950 nM with TK-10 renal, 2670 nM in the assay with DU-145 prostate, 2660 nM with SK-MEL-2 melanoma and 3500 nM with MDA-MB-231 breast. Also, the TGI in the assay on SNB-19 CNS came out at 27400 nM; with SK-MEL-5 melanoma it was 7450 nM; with U251 CNS, 5130 nM; with MDA-MB-435 it was 5030 nM; with LOX IMVI melanoma, 4890 nM; in the assay on RPMI-8226 leukemia it was 7860 nM. The TGI with TK-10 renal came to 7390 nM; in the assay with DU-145 prostate, 7150 nM; in the assay on SK-MEL-2 melanoma it was 6170 nM; with MDA-MB-231 breast it was 36600 nM.

Regarding `C=C1C(=O)O[C@H]2[C@H]1CC/C(COC(=O)OCCCCCOC(=O)OC/C1=C/CC[C@@]3(C)O[C@H]3[C@H]3OC(=O)C(=C)[C@@H]3CC1)=C\CC[C@@]1(C)O[C@@H]21`, the GI50 in the assay on SNB-19 CNS is 2100 nM; in the assay with SK-MEL-5 melanoma it was 1530 nM; in the assay on U251 CNS, 1310 nM; in the assay on MDA-MB-435 it was 527 nM; with LOX IMVI melanoma it was 241 nM; in the assay with RPMI-8226 leukemia it was 359 nM. For the same compound, the GI50 with TK-10 renal is 222 nM; with DU-145 prostate it was 1040 nM; in the assay with SK-MEL-2 melanoma it was 1370 nM; in the assay with MDA-MB-231 breast, 256 nM. The TGI in the assay on SNB-19 CNS was found to be 7710 nM; in the assay with SK-MEL-5 melanoma, 3070 nM; in the assay with U251 CNS, 2820 nM; in the assay on MDA-MB-435 it was 2130 nM; in the assay on LOX IMVI melanoma it was 654 nM; in the assay with RPMI-8226 leukemia it was 1470 nM. Moreover, the TGI with TK-10 renal turned out to be 590 nM; in the assay with DU-145 prostate, 2300 nM; in the assay on SK-MEL-2 melanoma it was 3310 nM; in the assay with MDA-MB-231 breast, 803 nM.
